Patent publication US5073571A, “Method of inhibiting virus” (priority 1989, dated 1991)

Assays:
HIV-1 = HIV-1 replication in H9 cells, p24 antigen ELISA; format: cell-based, HIV-1 strain HXB2gptX (in human H9 cells); details: 20-40 μM range
Procedure: (§1) Media was changed every other day. The effect of these compounds on virus production was determined by measuring the reverse transcriptase (RT) activity in samples of the cell culture supernatants. […] Negative controls consisted of no additions or 0.1ethanol. The results of duplicate assays were averaged. Panel B -Concentration-dependent effects of 13-oxamyristic acid on HIV-1 replication as measured by RT activity (percent of untreated control) and the presence of p24 antigen (ng/ml determined by ELISA). Error bars indicate the S.E.M. of assays done in triplicate. […] Panel D - Toxicity of 13-oxamyristic acid determined by viable cell count (trypan blue exclusion), as well as by [^3 H]thymidine and [^3 H]leucine labeling (see under Materials and Methods, Example 16, below). The incorporation of these radiolabeled compounds was determined in the total cell population contained in a well after 10 days of treatment with the analog. […]
Assay for HIV-1 Replication. […] The titer of the virus stock was determined by serial dilution using syncytia formation and reverse transcriptase activity (see below) as a measure of infectivity in H9 cells. […]
Virus Assays. Virus was quantitated using supernatant solutions of cells harvested on day 8 (m.o.i.=0.01) or day 10 (m.o.i.=0.001) of treatment. […]

H9 cells = test: [3H]leucine and [3H]thymidine labeling (protein and DNA synthesis) in HIV-1 infected H9 cells; format: cell-based, human; details: day 10
Procedure: as §1
Toxicity Studies. […] Cell survival was determined by trypan-blue exclusion. The number of unstained cells/mL in the treated cultures was divided by the number of unstained cells/mL in the untreated control cultures and expressed as percent control. Protein synthesis was measured at the end of the treatment periods by metabolic labeling for 4 hrs with L-[4,5^3 H(N)]-leucine (2 μCi/mL media, specific activity =140 Ci/mmol). […]

SMILES: COCCCCCCCCCCCC(=O)O [13-oxamyristate, 12-(Methoxy)dodecanoic acid]
- reduction in virus replication (p24 ELISA) (HIV-1): greater than 90%
- [3H]leucine labeling (H9 cells): correlated with the cell survival data
- [3H]thymidine labeling (H9 cells): correlated with the cell survival data
